Measurements: patent US7160733B2, “Ligand specific to β2-glycoprotein I and use thereof” (priority 2001, dated 2007)

Key:
[1] = system: anti-β2-GPI antibodies; assay: ELISA of the anti-β2-GPI antibodies by use of a ligand-coated plate (results in words); assay type: binding; settings: result in words; for binding of the anti-β2-GPI autoantibodies (WB-CAL-1 and EY2C9) to solid-phase ligand: ligand-coated plate
Protocol: (§1) Binding to extracted lipids: A microtiter plate (Immulon 1B, Dynex Technologies Inc.) was coated with lipids extracted from LDLs (50 μg/mL, 50 μL/well) by ethanol evaporation. The wells were blocked with PBS containing 1% BSA for one hour and the wells were incubated with 30 μg/mL of β2-GPI for one hour. Then, β2-GPI binding was detected using Cof-22 and HRP-labeled anti-mouse IgG antibodies. Alternatively, an anti-β2-GPI autoantibody (Cof-22, WB-CAL-1, or EY2C9) was diluted with a 0.3% BSA-containing PBS, and the diluted antibody was added to the coated plate (1.0 μg/mL, 100 μL/well) and incubated with β2-GPI (15 μg/mL) for one hour. The binding of the antibody was detected by an HRP-labeled anti-mouse IgG /or an anti-human IgM. The color was developed with H2O2 and o-phenylenediamine, and OD was measured at 490 nm. Between these steps, extensive washing were done using PBS containing 0.05% Tween 20.
(§2) Synthesized oxLig-1 (50 μg/mL, 50 μL/well) was adsorbed by evaporation on a polystyrene plate (Immulon 1B; Dynex Technologies Inc.), and the plate was then blocked with 1% BSA. Serum samples (diluted 1:100 with PBS containing 0.3% BSA) were incubated in the wells with β2-GPI (15 μg/mL) or other proteins for one hour at room temperature. Antibody binding was detected with HRP-labeled anti-human IgG. Further steps were performed through a method as described in “anti-β2-GPI ELISA.”

[2] = molecular target: T1, β2-GPI (Homo sapiens, UniProt P02749); assay: ELISA on solid-phase lipid (ligand)-coated plate: β2-GPI binding detected with Cof-22; settings: for β2-GPI binding to lipid: result in words (discussion); for β2-GPI binding (Cof-22 binding), No treatment: absorbance at 490 nm, mean ± SD (n = 3), solid-phase ligand not methylated
T1 construct: β2-GPI was purified from normal human plasma as described in [35] with slight modification; from tissue; host or cells: pooled normal human plasma from healthy subjects
T1 sequence (P02749 20-345): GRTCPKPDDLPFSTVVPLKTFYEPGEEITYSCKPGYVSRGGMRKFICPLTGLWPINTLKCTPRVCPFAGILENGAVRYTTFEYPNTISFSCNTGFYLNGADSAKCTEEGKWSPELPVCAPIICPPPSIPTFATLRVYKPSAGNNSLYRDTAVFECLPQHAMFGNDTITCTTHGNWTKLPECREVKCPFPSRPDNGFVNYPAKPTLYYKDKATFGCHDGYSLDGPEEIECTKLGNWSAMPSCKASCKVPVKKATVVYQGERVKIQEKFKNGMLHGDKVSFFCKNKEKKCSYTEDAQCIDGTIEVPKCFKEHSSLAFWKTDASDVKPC
Protocol: as §1, §2
(§3) CL (50 μg/mL, 50 μL/well) was adsorbed on a polystyrene plate (Immulon 1B), and further steps were performed through a method as described in “ELISA for antibodies against a protein-oxLig-1 complex.”

[3] = system: J774A.1 cells; assay: Liposome binding to macrophages (3H-labeled liposomes, 4° C.); assay type: cell-based, murine; settings: result in words
Protocol: FIG. 10. Effect of phosphatidylserine (PS) or oxLig-1 content on the binding of liposomes to macrophages. A monolayer of J774.A1 cells was incubated for 2 hours at 4° C. with Celgrosser-P medium containing ^3H-labeled liposomes (50 nmol lipid/well). Open circle represents PS-liposomes; closed circle represents PS-Chol-liposomes; open square represents oxLig-1-liposomes; and closed square represents oxLig-1-Chol-liposomes. Data are indicated as the mean± SD of triplicate samples.
FIG. 11. β2-GPI and anti-β2-GPI monoclonal antibody-dependent binding of ligand-containing liposomes to macrophage. A monolayer of J774.A1 cells was incubated for 2 hours at 4° C. with Celgrosser-P medium containing ^3H-labeled liposomes (50 nmol lipid/well) and WB-CAL-1, in the presence or absence of β2-GPI (200 μg/ml). • A: Binding of PS-liposomes (PS: 50 mol %,) to J774.A1. cells in the presence (closed square) or absence (open square) of β2-GPI (200 μg/ml) • B: Binding of oxLig-1-liposomes (oxLig-1: 40 mol %) to J774.A1 cells in the presence (black bar) or absence (white bar) of β2-GPI (200 μg/ml). • C: A monolayer of J774.A1 cells was incubated for 2 hours at 4° C. with Celgrosser-P medium containing ^3H-labeled synthesized oxLig-1-liposomes (50 nmol lipid/well) and WB-CAL-1, in the presence or absence of β2-GPI (200 μg/ml). Binding of synthesized oxLig-1-liposomes in the absence of β2-GPI and WB-CAL-1 (open circle), binding of synthesized oxLig-1-liposomes in the presence of β2-GPI (open square), binding of synthesized oxLig-1-liposomes in the presence of WB-CAL-1 (closed square), and binding of synthesized oxLig-1-liposomes in the presence of both β2-GPI and WB-CAL-1 (closed circle). Data are indicated as the mean ± SD of triplicate samples.
A monolayer of J774.A1 cells was incubated for 2 hours at 4° C. with Celgrosser-P medium containing [^3H]-labeled liposomes (containing a predetermined ligand, 50 nmol lipid/well). DPPS-containing liposomes (open squares), oxLig-1-containing liposomes (closed squares), oxLig-2-containing liposomes (closed circles), and 13-COOH-7KC-containing liposomes (closed triangles). Data are indicated as mean± SD of triplicate samples.
A monolayer of J774.A1 cells was incubated for 2 hours at 4° C. with Celgrosser-P medium containing [^3H]-labeled liposomes (containing a predetermined ligand (30 mmol %), 50 nmol lipid/well) and in the presence (black bars) or absence (white bars) of β2-GPI (200 μg/mL) and WB-CAL-1 ([…]).
A monolayer culture of murine macrophage-like cells (J774A.1) obtained from Riken Cell Bank (Tsukuba) was maintained in RPMI 1640 medium supplemented with 10% fetal carf serum (FCS). For binding experiments, the cells (8×10^5 cells/mL, RPMI1640) were dispensed in an amount of 1 mL/well into a 12-well culture plate (Sumitomo Bakelite Co., Ltd.) and were incubated for 24 hours at 37° C., then the culture broth was replaced with Celgrosser-P medium (Sumitomo Pharmaceutical Co.). After one hour of preincubation at 37° C., 50 μL of liposomes (50 nmol lipid/well) with or without β2-GPI (200 μg/mL) and WB-CAL-1 (100 μg/mL) were added to each culture, and the cells were incubated at 4° C. and/or 37° C. The wells were next washed with chilled PBS, and the cells were lysed by adding 1 mL of 0.1N NaOH. An aliquot was taken for determination of cellular proteins and of radioactivity associated with the cells. Protein concentration was determined in a manner as described above.

[4] = system: WB-CAL-1; assay: ELISA on solid-phase lipid (ligand)-coated plate: WB-CAL-1 binding in presence of β2-GPI; parameters: species or system mouse; settings: absorbance at 490 nm, mean ± SD (n = 3); solid-phase ligand not methylated
Protocol: as §1, §2, §3

[5] = system: EY2C9; assay: ELISA on solid-phase lipid (ligand)-coated plate: EY2C9 binding in presence of β2-GPI; parameters: species or system human; settings: absorbance at 490 nm, mean ± SD (n = 3); solid-phase ligand not methylated
Protocol: as §1, §2, §3

SMILES | binding of the three antibodies (WB-CAL-1, EY2C9, mouse monoclonal anti-β2-GPI antibody) to immobilized lipid [1] | β2-GPI binding to lipid [2] | direct binding of liposomes to macrophages ([3]; J774A.1 cells, 2 hours at 4° C., 50 nmol lipid/well, without β2-GPI and antibody) | binding of liposomes to macrophages after methylation of the ligand ([3]; liposomes containing methylated ligand, with β2-GPI and WB-CAL-1, FIGS. 20C and 20D) | uptake of ligand-containing liposomes to J774A.1 cells in the presence of both β2-GPI and WB-CAL-1 ([3]; liposomes containing the ligand, compared with cholesteryl linoleate-liposomes (control), FIG. 20) | WB-CAL-1 binding, No treatment [4] | binding of the anti-β2-GPI autoantibodies (WB-CAL-1 and EY2C9) to solid-phase ligand [1] | β2-GPI binding (Cof-22 binding), No treatment [2] | EY2C9 binding, No treatment [5]
CC(C)CCC[C@@H](C)[C@H]1CC[C@H]2[C@@H]3C(=O)C=C4C[C@@H](O)CC[C@]4(C)[C@H]3CC[C@]12C [7-ketocholesterol, 5-cholesten-3β-ol-7-one, reference compound] | did not bind | did not bind | – | – | – | – | – | – | –
CC(C)CCC[C@@H](C)[C@H]1CC[C@H]2[C@@H]3C(=O)C=C4C[C@@H](OC(=O)CCCCCCCCCCCC(=O)O)CC[C@]4(C)[C@H]3CC[C@]12C [13-COOH-7KC, 13-oxo-13-(7-ketocholest-5-en-3β-yloxy)tridecanoic acid] | – | significant bonding | relatively low or negligible small | substantially no binding | significantly enhanced | 0.336 +/− 0.027 | significant binding | 1.303 +/− 0.049 | 1.062 +/− 0.040
CCCCC/C=C\C/C=C\CCCCCCCC(=O)O[C@H]1CC[C@@]2(C)C(=CC[C@H]3[C@@H]4CC[C@H]([C@H](C)CCCC(C)C)[C@@]4(C)CC[C@@H]32)C1 [Cholesteryl linoleate, reference compound] | – | did not bind | – | – | – | 0.056 +/− 0.002 | no such binding was observed | 0.061 +/− 0.005 | 0.074 +/− 0.012
